Results published in patent publication US12365651B2, “Use of pirfenidone and derivatives for modulation of B lymphocyte activity and organ protection from acute tissue damage” (Washington University, priority 2017, dated 2025).
Values joined by “and” are separate entries in the source; they are usually repeats but may differ in a detail not shown here. Equal values may be shown once.

Columns and labels:
naïve WT hearts = test: Flow cytometry of naïve WT hearts after Pirfenidone for 1 week; format: in vivo, mouse; conditions: Pirfenidone 1 week
Source text: Accordingly, we performed FACS analysis 4 days after DT injection.
In order to administer Pirfenidone, mice were fed powdered chow mixed with Pirfenidone (eNovation Chemicals, Bridgewater, NJ, USA, Cat #D404655) at 0.5% in weight or powdered chow alone. […] Unless specifically noted, mice were switched to a diet enriched with Pirfenidone 3 days prior to DT-induced injury or I/R-injury, and maintained on this diet throughout the duration of the experiments. In parallel studies, we fed mice normal chow prior to I/R injury and then administered Pirfenidone acutely at the time of cardiac injury. For these latter studies, mice were injected i.p. with diluent (200 μL phosphate-buffered solution [PBS]) or i.p. with Pirfenidone (200 μL of Pirfenidone [5 mg/mL] in PBS) after reperfusion and the morning after I/R injury (2 injections total). They were switched to Pirfenidone-enriched diet or control diet the evening of I/R injury and maintained on the same diet until completion of the experiment.
For flow cytometry experiments, mice were euthanized in a CO2 chamber and the hearts were perfused with cold PBS, carefully dissected from extracardiac tissue under a stereo microscope, finely minced, suspended in 3 ml of DMEM, and then digested with 120 U of DNAse (Sigma), 180 U of hyaluronidase (Sigma) and 1350 U of Collagenase (Sigma) for 60 minutes at 37Co. The digested material was filtered through 40 μm filters and pelleted by centrifugation (250×g for 3 minutes at 4° C.) in HBSS supplemented with 2% FCS+0.2% bovine serum albumin (BSA). Red blood cells were lysed in ACK lysis buffer (Invitrogen) for 15′ on ice and the remaining cells were resuspended in 300 μL of FACS buffer (PBS with 2% FCS and 2 mM EDTA). Cultured cells were collected for FACS analysis as described above and resuspended in 300 μL of FACS buffer. Samples were labeled with the fluorescently conjugated antibodies outlined in the table below. Cells were stained for 45 minutes on ice, and washed in FACS buffer prior to analysis. All antibodies from Biolegend were used at 0.2 μL per 300 μL sample, while antibodies from BD biosciences were used at 0.4 μL per 300 μL sample. FACS was performed on Beckton Dickinson analyzers (LSRII, Canto, X20 or Fortessa). Compensation controls were generated using UltraComp ebeads (Invitrogen, Carlsbad, CA, USA) and verified on single color control samples obtained staining primary splenocytes. For flow cytometry experiments that involved the DT injury model, we collected serum at the time of terminal sacrifice for quantification of troponin. […] Cell sorting was performed using a FACSAria sorting instrument (Beckton Dickinson) at the Washington University Department of Pathology Flow Cytometry and Sorting Core.

[1] = Plasma pharmacokinetics after IV or PO administration; format: in vivo; conditions: SD Rat, PO 40 mg/kg
[2] = tested on: purified B lymphocytes harvested from the spleen; test: CD86 on cultured purified splenic B lymphocytes; format: cell-based, mouse
Source text: We next sought to determine whether the response of B cells to necrotic cytosolic extracts and LPS were cell autonomous, by repeating the above in vitro experiments in purified B lymphocytes harvested from the spleen. […] In contrast, necrotic cytosolic extracts induced a small, non-statistically significant (p=0.62) upregulation of CD19+ CD86high B cells when compared to diluent treated cells (FIG. 10G). Similar results were obtained in splenic B lymphocytes from TIRAP−/− animals (FIG. 10H).
Peritoneal derived inflammatory cells (PDICs) were harvested from the peritoneal cavity of thioglycolate-stimulated wild-type and TIRAP−/− deficient mice. PDIC cultures contain an admixture of inflammatory cells, including CD19+ B cells (40). TIRAP deficient mice were a gift from Dr. Ruslan Medzhitov (Yale University, New Haven, CT). PDICs were harvested on day 4 after i.p. injection of 1 ml of thioglycolate medium (Millipore, Billerica, MA, USA). Mice were euthanized, and the peritoneal cavity was washed 3-4 times with 3 mLs of Dulbecco's modified medium containing 10% fetal calf serum. A 3 mL syringe with an 18-gauge needle was used to inject the peritoneal cavity and retrieve the medium containing PDICs. Harvested cells were centrifuged at 250 g for 5 minutes, re-suspended in 5 mL of media and then filtered through a 40 μm strainer. […]

Cc1ccc(=O)n(-c2ccccc2)c1 [Pirfenidone, 5 methyl-1-phenyl-2-[H] pyridone]
number of CD45+ cells/mg tissue (naïve WT hearts; p=0.53): no significant effect | Ly6C+CD64 low/− monocytes (naïve WT hearts; p=0.81): no significant effect | CD64+Ly6Clow/− macrophages (naïve WT hearts; p=0.82): no significant effect | Ly6G+ neutrophils (naïve WT hearts; p=0.82): no significant effect | CD19+ B-lymphocytes (naïve WT hearts; p=0.94): no significant effect | AUMC0-t, Mean [1]: 14976 h*h*ng/mL | Plasma concentrations of Pirfenidone ([1]; 8 h, individual rats 7-9, 40 mg/kg): BLOQ (Below lower limit of quantification (1 ng/mL)) and 23.6 ng/ml and 107 ng/ml | Tmax ([1]; Sprague-Dawley, plasma, individual rats 7-9): 15 min | LPS induced expression of CD86 on B cells ([2]; B lymphocytes from the spleen, 24 hours, LPS + 0.5% pirfenidone): significantly reduced | LPS provoked increase in CD19+ CD86high cells ([2]; purified splenic B lymphocytes, wild type, LPS): partially sensitive to inhibition
